{"source": "patent US12084472B2", "about": "(Ardelyx, Inc., priority 2015, dated 2024)", "data": [{"molecular_target": "T1, human TGR5 (Homo sapiens, UniProt Q8TDU6)", "T1 construct": "expressed in transfected cells; host or cells: HEK293", "T1 sequence (Q8TDU6 1-330)": "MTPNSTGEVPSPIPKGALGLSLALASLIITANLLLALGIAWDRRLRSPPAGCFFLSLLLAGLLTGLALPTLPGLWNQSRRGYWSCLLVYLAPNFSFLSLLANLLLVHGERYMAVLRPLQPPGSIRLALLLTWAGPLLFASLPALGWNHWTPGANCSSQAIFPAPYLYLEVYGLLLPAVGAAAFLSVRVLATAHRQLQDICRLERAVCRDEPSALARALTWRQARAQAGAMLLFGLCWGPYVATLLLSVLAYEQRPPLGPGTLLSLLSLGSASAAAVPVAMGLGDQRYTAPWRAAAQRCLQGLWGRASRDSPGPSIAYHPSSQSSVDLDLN", "test": "Cell-based TGR5 assay (cAMP generation, HTRF)", "conditions": "HEK293 cells stably transfected with human TGR5; cAMP by HTRF; 30 minutes at 37° C.; read-out: pEC50 Human TGR5 (converted)", "in_short": "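Read-out was HTRF detection of cAMP, converted to concentration via a standard curve and fitted (3-parameter logistic) for pEC50 and maximal response. Agonist stimulation used HEK293 cells stably transfected with human TGR5, incubated 30 min at 37° C in IBMX-containing buffer at 0.05 nM to 10 μM compound.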", "units": {"EC50": "nM"}, "values": [{"compound": "O=C(CCCCc1cc(Cl)c(COC2(c3cnccc3-c3ccccc3OC3CC3)CC2)cc1Cl)NCCOCCOCCOCCNC(=O)CCCCc1cc(Cl)c(COC2(c3cnccc3-c3ccccc3OC3CC3)CC2)cc1Cl", "note": "[Compound I-90, N,N′-(((oxybis(ethane-2,1-diyl))bis(oxy))bis(ethane-2,1-diyl))bis(5-(2,5-dichloro-4-((1-(4-(2-cyclopropoxyphenyl)pyridin-3-yl)cyclopropoxy)methyl)phenyl)pentanamide)]", "EC50": "126 to 1000"}, {"compound": "CN1C[C@@H]2C[C@H]1CN2S(=O)(=O)c1ccc(Cl)c(COC2(c3cnccc3-c3ccccc3OC3CC3)CC2)c1", "note": "[Compound I-777, (1S,4S)-2-((4-chloro-3-((1-(4-(2-cyclopropoxyphenyl)pyridin-3-yl)cyclopropoxy)methyl)phenyl)sulfonyl)-5-methyl-2,5-diazabicyclo[2.2.1]heptane]", "EC50": "126 to 1000"}, {"compound": "CCN(CCCCNC(=O)NC[C@H](O)[C@@H](O)[C@H](O)[C@H](O)CO)S(=O)(=O)c1ccc(Cl)c(COC2(c3cnccc3-c3ccccc3OC3CC3)CC2)c1", "note": "[Compound I-390, 4-chloro-3-((1-(4-(2-cyclopropoxyphenyl)pyridin-3-yl)cyclopropoxy)methyl)-N-ethyl-N-(4-(3-((2S,3R,4R,5R)-2,3,4,5,6-pentahydroxyhexyl)ureido)butyl) benzenesulfonamide]", "EC50": "< 100"}, {"compound": "Clc1ccc(Cl)c(COC2(c3cnccc3-c3ccccc3OC3CC3)CCOC2)c1", "note": "(stereo not shown) [Compound I-743, 4-(2-cyclopropoxyphenyl)-3-(3-((2,5-dichlorobenzyl)oxy)tetrahydrofuran-3-yl)pyridine]", "EC50": "< 100"}, {"compound": "Fc1ccc(-c2ccncc2C2(NCc3cc(Cl)ccc3Cl)CC2)c(OC2CC2)c1", "note": "[Compound I-18, 1-[4-(2-cyclopropoxy-4-fluorophenyl)pyridin-3-yl]-N-[(2,5-dichlorophenyl)methyl]cyclopropan-1-amine]", "EC50": "< 100"}, {"compound": "Cc1cc(COC2(c3cnccc3-c3ccccc3OC3CC3)CC2)c(C)cc1CCCCNC(=O)NC[C@H](O)[C@@H](O)[C@H](O)[C@H](O)CO", "note": "(stereo in doubt) [Compound I-150, 1-{4-[4-({1-[4-(2-cyclopropoxyphenyl)pyridin-3-yl]cyclopropoxy}methyl)-2,5-dimethylphenyl]butyl}-3-[(2S,3R,4R,5R)-2,3,4,5,6-pentahydroxyhexyl]urea]", "EC50": "< 100"}, {"compound": "CC(=O)NCCCCN(CCCSc1ccc(Cl)c(CNC2(c3cnccc3-c3ccccc3OC3CC3)CC2)c1)C(=O)[C@@H](O)[C@@H](O)[C@H](O)[C@@H](O)CO", "note": "[Compound I-602, (2S,3S,4R,5S)-N-[3-({4-chloro-3-[({1-[4-(2-cyclopropoxyphenyl)pyridin-3-yl]cyclopropyl}amino)methyl]phenyl}sulfanyl)propyl]-N-(4-acetamidobutyl)-2,3,4,5,6-pentahydroxyhexanamide]", "EC50": "126 to 1000"}, {"compound": "Cc1ccc(C(C)CCCCNC(=O)NC[C@H](O)[C@@H](O)[C@H](O)[C@H](O)CO)cc1CNC1(c2cnccc2-c2ccccc2OC2CC2)CC1", "note": "(stereo partly drawn) [Compound I-272, 1-(5-{3-[({1-[4-(2-cyclopropoxyphenyl)pyridin-3-yl]cyclopropyl}amino)methyl]-4-methylphenyl}hexyl)-3-[(2S,3R,4R,5R)-2,3,4,5,6-pentahydroxyhexyl]urea]", "EC50": "< 100"}, {"compound": "NC(=O)CN(C[C@H](O)[C@@H](O)[C@H](O)[C@H](O)CO)C(=O)CCCSc1ccc(Cl)c(COC2(c3cnccc3-c3ccccc3OC3CC3)CC2)c1", "note": "[Compound I-663, N-(carbamoylmethyl)-4-{[4-chloro-3-({1-[4-(2-cyclopropoxyphenyl)pyridin-3-yl]cyclopropoxy}methyl)phenyl]sulfanyl}-N-[(2S,3R,4R,5R)-2,3,4,5,6-pentahydroxyhexyl]butanamide]", "EC50": "126 to 1000"}, {"compound": "O=C(CCCC1CN(S(=O)(=O)c2ccc(Cl)c(COC3(c4cnccc4-c4ccccc4OC4CC4)CC3)c2)C1)NC[C@H](O)[C@@H](O)[C@H](O)[C@H](O)CO", "note": "[Compound I-453, 4-{1-[4-chloro-3-({1-[4-(2-cyclopropoxyphenyl)pyridin-3-yl]cyclopropoxy}methyl)benzenesulfonyl]azetidin-3-yl}-N-[(2S,3R,4R,5R)-2,3,4,5,6-pentahydroxyhexyl]butanamide]", "EC50": "< 100"}, {"compound": "Cc1ccc(SCCCCC(=O)NC[C@H](O)[C@@H](O)[C@H](O)[C@H](O)CO)nc1COC1(c2cnccc2-c2ccccc2OC2CC2)CC1", "note": "[Compound I-657, 5-{[6-({1-[4-(2-cyclopropoxyphenyl)pyridin-3-yl]cyclopropoxy}methyl)-5-methylpyridin-2-yl]sulfanyl}-N-[(2S,3R,4R,5R)-2,3,4,5,6-pentahydroxyhexyl]pentanamide]", "EC50": "1260 to 10000"}, {"compound": "Cc1ccc(SCCCCN(CCS(C)(=O)=O)C[C@H](O)[C@@H](O)[C@H](O)[C@H](O)CO)cc1COC1(c2cnccc2-c2ccccc2OC2CC2)CC1", "note": "[Compound I-615, (2R,3R,4R,5S)-6-[(4-{[3-({1-[4-(2-cyclopropoxyphenyl)pyridin-3-yl]cyclopropoxy}methyl)-4-methylphenyl]sulfanyl}butyl)(2-methanesulfonylethyl)amino]hexane-1,2,3,4,5-pentol]", "EC50": "< 100"}, {"compound": "CC(=O)N(CCCC(C)c1ccc(Cl)c(CNC2(c3cnccc3-c3ccccc3OC3CC3)CC2)c1)C[C@H](O)[C@@H](O)[C@H](O)[C@H](O)CO", "note": "(stereo partly drawn) [Compound I-377, N-(4-{4-chloro-3-[({1-[4-(2-cyclopropoxyphenyl)pyridin-3-yl]cyclopropyl}amino)methyl]phenyl}pentyl)-N-[(2S,3R,4R,5R)-2,3,4,5,6-pentahydroxyhexyl]acetamide]", "EC50": "< 100"}, {"compound": "O=C(NCCCCSc1ccc(Cl)c(COC2(c3cnccc3-c3ccccc3OC3CC3)CC2)c1)N[C@H]1CC[C@H](NC(=O)NC[C@H](O)[C@@H](O)[C@H](O)[C@H](O)CO)CC1", "note": "[Compound I-632, 1-(4-{[4-chloro-3-({1-[4-(2-cyclopropoxyphenyl)pyridin-3-yl]cyclopropoxy}methyl)phenyl]sulfanyl}butyl)-3-[(1r,4r)-4-({[(2S,3R,4R,5R)-2,3,4,5,6-pentahydroxyhexyl]carbamoyl}amino)cyclohexyl]urea]", "EC50": "< 100"}, {"compound": "O=C(CCCCc1cc(Cl)c(COC2(c3cnccc3-c3ccccc3OC3CC3)CC2)cc1Cl)N(CCO)C[C@H](O)[C@@H](O)[C@H](O)[C@H](O)CO", "note": "[Compound I-105, 5-[2,5-dichloro-4-({1-[4-(2-cyclopropoxyphenyl)pyridin-3-yl]cyclopropoxy}methyl)phenyl]-N-(2-hydroxyethyl)-N-[(2S,3R,4R,5R)-2,3,4,5,6-pentahydroxyhexyl]pentanamide]", "EC50": "< 100"}, {"compound": "O=C(CC1CCN(S(=O)(=O)c2ccc(Cl)c(COC3(c4cnccc4-c4ccccc4OC4CC4)CC3)c2)CC1)NC[C@H](O)[C@@H](O)[C@H](O)[C@H](O)CO", "note": "[Compound I-441, 2-{1-[4-chloro-3-({1-[4-(2-cyclopropoxyphenyl)pyridin-3-yl]cyclopropoxy}methyl)benzenesulfonyl]piperidin-4-yl}-N-[(2S,3R,4R,5R)-2,3,4,5,6-pentahydroxyhexyl]acetamide]", "EC50": "126 to 1000"}, {"compound": "C[C@@H](CCCN)c1ccc(Cl)c(CNC2(c3cnccc3-c3ccccc3OC3CC3)CC2)c1", "note": "(single isomer, unassigned) [Compound I-250]", "EC50": "< 100"}, {"compound": "CC(C)N(CCCCNC(=O)N[C@@H](CO)[C@@H](O)[C@H](O)[C@H](O)CO)S(=O)(=O)c1ccc(Cl)c(CNC2(c3cnccc3-c3ccccc3OC3CC3)CC2)c1", "note": "[Compound I-744, 4-chloro-3-(((1-(4-(2-cyclopropoxyphenyl)pyridin-3-yl)cyclopropyl)amino)methyl)-N-isopropyl-N-(4-(3-((2S,3R,4S,5R)-1,3,4,5,6-pentahydroxyhexan-2-yl)ureido)butyl)benzenesulfonamide]", "EC50": "< 100"}, {"compound": "OC[C@@H](O)[C@@H](O)[C@H](O)[C@@H](O)CNCCCCc1cc(Cl)c(COC2(c3cnccc3-c3ccccc3OC3CC3)CC2)cc1Cl", "note": "[Compound I-66, (2R,3R,4R,5S)-6-(4-(2,5-dichloro-4-((1-(4-(2-cyclopropoxyphenyl)pyridin-3-yl)cyclopropoxy)methyl)phenyl)butylamino)hexane-1,2,3,4,5-pentaol]", "EC50": "126 to 1000"}, {"compound": "O=C(NCCCCCSc1ccc(Cl)c(COC2(c3cnccc3-c3ccccc3OC3CC3)CC2)c1)N[C@H]1CC[C@H](NC(=O)NC[C@H](O)[C@@H](O)[C@H](O)[C@H](O)CO)CC1", "note": "[Compound I-630, 1-(5-{[4-chloro-3-({1-[4-(2-cyclopropoxyphenyl)pyridin-3-yl]cyclopropoxy}methyl)phenyl]sulfanyl}pentyl)-3-[(1r,4r)-4-({[(2S,3R,4R,5R)-2,3,4,5,6-pentahydroxyhexyl]carbamoyl}amino)cyclohexyl]urea]", "EC50": "< 100"}, {"compound": "CN(CC(=O)O)CC(=O)N(CCCCc1cc(Cl)c(COC2(c3cnccc3-c3ccccc3OC3CC3)CC2)cc1Cl)C[C@H](O)[C@@H](O)[C@H](O)[C@H](O)CO", "note": "[Compound I-195, 2-{[({4-[2,5-dichloro-4-({1-[4-(2-cyclopropoxyphenyl)pyridin-3-yl]cyclopropoxy}methyl)phenyl]butyl}[(2S,3R,4R,5R)-2,3,4,5,6-pentahydroxyhexyl]carbamoyl)methyl](methyl)amino}acetic acid]", "EC50": "126 to 1000"}, {"compound": "CS(=O)(=O)CCN(C[C@H](O)[C@@H](O)[C@H](O)[C@H](O)CO)C(=O)CCCCc1cc(Cl)c(COC2(c3cnccc3-c3ccccc3OC3CC3)CC2)cc1Cl", "note": "[Compound I-130, 5-[2,5-dichloro-4-({1-[4-(2-cyclopropoxyphenyl)pyridin-3-yl]cyclopropoxy}methyl)phenyl]-N-(2-methanesulfonylethyl)-N-[(2S,3R,4R,5R)-2,3,4,5,6-pentahydroxyhexyl]pentanamide]", "EC50": "< 100"}]}]}
